Data from patent US20230374034A1, “NOVEL BICYCLIC COMPOUNDS” (PRISM BIOLAB CO., LTD., priority 2020, published 2023).

What follows are compounds tested on NICD (Notch intracellular domain) CSL-bla reporter in HeLa cells (assay: Notch assay (CellSensor T-REx NICD CSL-bla HeLa beta-lactamase reporter; Method 1 / Method 2)). Settings: Homo sapiens, 10 μM compound, Method 1 (10× compound prepared in assay medium, added to plated cells), read-out: inhibiton (%) at 10 μM.
Assay type: cell-based
Procedure, shortened: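 HeLa cells carrying doxycycline-inducible NICD and a CSL-driven beta-lactamase reporter, 10^3 cells/well, were treated with compound plus doxycycline for 16-20 h at 37 °C. CCF4-AM substrate was loaded for 4 h at room temperature; background-subtracted blue (460 nm)/green (530 nm) emission ratio taken per well.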

SMILES | inhibition at 10 µM [%]
CC(C)[C@H]1ON(C(=O)OCC2CCCCC2)C2CN(Cc3ccccc3)C(=O)[C@H](Cc3ccc(O)cc3)N2C1=O (stereo partly drawn) [Compound I-7, (3R,6S)-cyclohexylmethyl 8-benzyl-6-(4-hydroxybenzyl)-3-isopropyl-4,7-dioxohexahydropyrazino[2,1-c][1,2,4]oxadiazine-1(6H)-carboxylate] | 55.5
CCCC[C@@H]1ON(C(=O)OCc2ccccc2)C2CN(CCCC)C(=O)[C@H](Cc3ccc(O)cc3)N2C1=O (stereo partly drawn) [Compound I-8, (3S,6S)-benzyl 3,8-dibutyl-6-(4-hydroxybenzyl)-4,7-dioxohexahydropyrazino[2,1-c][1,2,4]oxadiazine-1(6H)-carboxylate] | 60.2
CCCC[C@H]1ON(C(=O)OCc2cccc3ccccc23)C2CN(Cc3ccccc3)C(=O)[C@H](Cc3ccc(O)cc3)N2C1=O (stereo partly drawn) [Compound I-11, (3R,6S)-naphthalen-1-ylmethyl 8-benzyl-3-butyl-6-(4-hydroxybenzyl)-4,7-dioxohexahydropyrazino[2,1-c][1,2,4]oxadiazine-1(6H)-carboxylate] | 51.7
CCCC[C@H]1C(=O)N(CCC(N)=O)CC2N(C(=O)OCc3cccc4ccccc34)O[C@@H](Cc3ccccc3)C(=O)N21 (stereo partly drawn) [Compound I-25, (3S,6S)-naphthalen-1-ylmethyl 8-(3-amino-3-oxopropyl)-3-benzyl-6-butyl-4,7-dioxohexahydropyrazino[2,1-c][1,2,4]oxadiazine-1(6H)-carboxylate] | 70.3

Same assay, conditions: Homo sapiens, 10 μM compound, Method 2 (40 nL of 1000× compound added to plate with Echo), read-out: inhibiton (%) at 10 μM

SMILES | inhibition at 10 µM [%]
CC(C)C[C@H]1ON(C(=O)OCCc2ccccc2)C2CN([C@@H](Cc3ccccc3)C(=O)NCCCc3ccccc3)C(=O)[C@H](CCC(N)=O)N2C1=O (stereo partly drawn) [Compound I-123, phenethyl (3R,6S)-6-(3-amino-3-oxopropyl)-3-isobutyl-4,7-dioxo-8-((S)-1-oxo-3-phenyl-1-((3-phenylpropyl)amino)propan-2-yl)hexahydropyrazino[2,1-c][1,2,4]oxadiazine-1(6H)-carboxylate] | 52.3
O=C1[C@H](CO)N2C(=O)[C@@H](Cc3ccc(O)cc3)ON(C(=O)OCc3ccccc3)C2CN1CCc1cccc2ccccc12 (stereo partly drawn) [Compound I-48, (3R,6S)-benzyl 3-(4-hydroxybenzyl)-6-(hydroxymethyl)-8-(2-(naphthalen-1-yl)ethyl)-4,7-dioxohexahydropyrazino[2,1-c][1,2,4]oxadiazine-1(6H)-carboxylate] | 57.3
CC(C)C[C@H]1ON(CCCc2ccccc2)C2CN(C3CCNCC3)C(=O)[C@H](CC(C)C)N2C1=O (stereo partly drawn) [Compound I-147, (3R,6S)-3,6-diisobutyl-1-(3-phenylpropyl)-8-(piperidin-4-yl)tetrahydropyrazino[2,1-c][1,2,4]oxadiazine-4,7(3H,6H)-dione] | 50.2
NCCCC[C@H]1C(=O)N(CC2CCCCC2)CC2N(C(=O)OCC3CCCCC3)O[C@H](Cc3ccccc3)C(=O)N21 (stereo partly drawn) [Compound I-29, (3R,6S)-cyclohexylmethyl 6-(4-aminobutyl)-3-benzyl-8-(cyclohexylmethyl)-4,7-dioxohexahydropyrazino[2,1-c][1,2,4]oxadiazine-1(6H)-carboxylate] | 101
CC(C)C[C@H]1C(=O)N(CCc2ccc(O)cc2)CC2N(C(=O)OCCc3ccc(O)cc3)O[C@H](Cc3ccc(O)cc3)C(=O)N21 (stereo partly drawn) [Compound I-41, (3R,6S)-4-hydroxyphenethyl 3-(4-hydroxybenzyl)-8-(4-hydroxyphenethyl)-6-isobutyl-4,7-dioxohexahydropyrazino[2,1-c][1,2,4]oxadiazine-1(6H)-carboxylate] | 59.3
O=C(NCCc1ccccc1)[C@H](Cc1ccccc1)N1CC2N(C(=O)OCCc3ccc(O)cc3)O[C@H](Cc3ccc(O)cc3)C(=O)N2[C@@H](Cc2ccccc2)C1=O (stereo partly drawn) [Compound I-83, 4-hydroxyphenethyl (3R,6S)-6-benzyl-3-(4-hydroxybenzyl)-4,7-dioxo-8-((S)-1-oxo-1-(phenethylamino)-3-phenylpropan-2-yl)hexahydropyrazino [2,1-c][1,2,4]oxadiazine-1(6H)-carboxylate] | 76.2
CC(C)CCNC(=O)[C@H](CC(C)C)N1CC2N(C(=O)OCCc3ccc(O)cc3)O[C@H](Cc3ccccc3)C(=O)N2[C@@H](C)C1=O (stereo partly drawn) [Compound I-120, 4-hydroxyphenethyl (3R,6S)-3-benzyl-8-((S)-1-(isopentylamino)-4-methyl-1-oxopentan-2-yl)-6-methyl-4,7-dioxohexahydropyrazino [2,1-c][1,2,4]oxadiazine-1(6H)-carboxylate] | 67.1
CCCC[C@@H](C(=O)NCCCc1ccccc1)N1CC2N(C(=O)OCCc3ccccc3)O[C@H](CC(C)C)C(=O)N2[C@@H](CCC(N)=O)C1=O (stereo partly drawn) [Compound I-124, phenethyl (3R,6S)-6-(3-amino-3-oxopropyl)-3-isobutyl-4,7-dioxo-8-((S)-1-oxo-1-((3-phenylpropyl)amino)hexan-2-yl)hexahydropyrazino[2,1-c][1,2,4]oxadiazine-1(6H)-carboxylate] | 57.1
CC(C)CCOC(=O)N1O[C@H](C)C(=O)N2C1CN([C@@H](Cc1ccccc1)C(=O)NCCCO)C(=O)[C@@H]2Cc1ccccc1 (stereo partly drawn) [Compound I-89, isopentyl (3R,6S)-6-benzyl-8-((S)-1-((3-hydroxypropyl)amino)-1-oxo-3-phenylpropan-2-yl)-3-methyl-4,7-dioxohexahydropyrazino[2,1-c][1,2,4]oxadiazine-1(6H)-carboxylate] | 58.3
Cc1ccc(S(=O)(=O)N2CCC(CCCN3O[C@H](CC(C)C)C(=O)N4C3CN(C3CCN(C)CC3)C(=O)[C@@H]4CC(C)C)CC2)cc1 (stereo partly drawn) [Compound I-149, (3R,6S)-3,6-diisobutyl-8-(1-methylpiperidin-4-yl)-1-(3-(1-tosylpiperidin-4-yl)propyl)tetrahydropyrazino [2,1-c][1,2,4]oxadiazine-4,7(3H,6H)-dione] | 114
CCCCOC(=O)N1O[C@H](CC2CCCCC2)C(=O)N2C1CN(CCC(C)C)C(=O)[C@@H]2CCCCN (stereo partly drawn) [Compound I-35, (3R,6S)-butyl 6-(4-aminobutyl)-3-(cyclohexylmethyl)-8-isopentyl-4,7-dioxohexahydropyrazino[2,1-c][1,2,4]oxadiazine-1(6H)-carboxylate] | 54
O=C(NCCc1ccccc1)[C@H](Cc1ccccc1)N1CC2N(C(=O)OCCc3ccc(O)cc3)O[C@H](Cc3ccc(O)cc3)C(=O)N2[C@@H](Cc2ccc(O)cc2)C1=O (stereo partly drawn) [Compound I-116, 4-hydroxyphenethyl (3R,6S)-3,6-bis(4-hydroxybenzyl)-4,7-dioxo-8-((S)-1-oxo-1-(phenethylamino)-3-phenylpropan-2-yl)hexahydropyrazino[2,1-c][1,2,4]oxadiazine-1(6H)-carboxylate] | 62.5
CC(C)CCOC(=O)N1O[C@H](Cc2ccccc2)C(=O)N2C1CN([C@@H](Cc1ccccc1)C(=O)NCCc1ccccc1)C(=O)[C@@H]2Cc1ccc(O)cc1 (stereo partly drawn) [Compound I-105, isopentyl (3R,6S)-3-benzyl-6-(4-hydroxybenzyl)-4,7-dioxo-8-((S)-1-oxo-1-(phenethylamino)-3-phenylpropan-2-yl)hexahydropyrazino[2,1-c][1,2,4]oxadiazine-1(6H)-carboxylate] | 60.9
NC(=O)CC[C@H]1C(=O)N([C@@H](Cc2ccccc2)C(=O)NCCCc2ccccc2)CC2N(C(=O)OCCc3ccc(O)cc3)O[C@H](Cc3ccccc3)C(=O)N21 (stereo partly drawn) [Compound I-126, 4-hydroxyphenethyl (3R,6S)-6-(3-amino-3-oxopropyl)-3-benzyl-4,7-dioxo-8-((S)-1-oxo-3-phenyl-1-((3-phenylpropyl)amino)propan-2-yl)hexahydropyrazino [2,1-c][1,2,4]oxadiazine-1(6H)-carboxylate] | 67.2
C[C@H]1ON(C(=O)OCCc2ccccc2)C2CN([C@@H](Cc3ccccc3)C(=O)NCCC(N)=O)C(=O)[C@H](Cc3ccccc3)N2C1=O (stereo partly drawn) [Compound I-85, phenethyl (3R,6S)-8-((S)-1-((3-amino-3-oxopropyl)amino)-1-oxo-3-phenylpropan-2-yl)-6-benzyl-3-methyl-4,7-dioxohexahydro-pyrazino[2,1-c] [1,2,4]oxadiazine-1(6H)-carboxylate] | 66.5
NC(=O)C[C@H]1C(=O)N(CCc2ccccc2)CC2N(C(=O)OCC3CCCCC3)O[C@H](Cc3ccc(O)cc3)C(=O)N21 (stereo partly drawn) [Compound I-39, (3R,6S)-cyclohexylmethyl 6-(2-amino-2-oxoethyl)-3-(4-hydroxybenzyl)-4,7-dioxo-8-phenethylhexahydropyrazino [2,1-c][1,2,4]oxadiazine-1(6H)-carboxylate] | 52.1
CC[C@H](C)[C@H]1C(=O)N(CCc2cccc3ccccc23)CC2N(C(=O)OCCc3ccc(O)cc3)O[C@H](Cc3ccc(O)cc3)C(=O)N21 (stereo partly drawn) [Compound I-46, (3R,6S)-4-hydroxyphenethyl 6-((S)-sec-butyl)-3-(4-hydroxybenzyl)-8-(2-(naphthalen-1-yl)ethyl)-4,7-dioxohexahydropyrazino[2,1-c][1,2,4]oxadiazine-1(6H)-carboxylate] | 75.6
CC(C)CCOC(=O)N1O[C@H](C)C(=O)N2C1CN([C@@H](Cc1ccccc1)C(=O)NCCC(N)=O)C(=O)[C@@H]2Cc1ccccc1 (stereo partly drawn) [Compound I-84, isopentyl (3R,6S)-8-((S)-1-((3-amino-3-oxopropyl)amino)-1-oxo-3-phenylpropan-2-yl)-6-benzyl-3-methyl-4,7-dioxohexahydro-pyrazino[2,1-c] [1,2,4]oxadiazine-1(6H)-carboxylate] | 78.4
CC[C@H](C)OC(=O)N1O[C@H](Cc2ccccc2)C(=O)N2C1CN(CCc1cccc3ccccc13)C(=O)[C@@H]2CCCCN (stereo partly drawn) [Compound I-33, (3R,6S)-(S)-sec-butyl 6-(4-aminobutyl)-3-benzyl-8-(2-(naphthalen-1-yl)ethyl)-4,7-dioxohexahydropyrazino[2,1-c][1,2,4]oxadiazine-1(6H)-carboxylate] | 59.6
